Experimental findings from patent US20140378474A1, “5-membered heteroarylcarboxamide derivatives as plasma kallikrein inhibitors” (NOVARTIS AG, priority 2012, published 2014) are described below.

For orientation: IC50 means the concentration that gives 50% inhibition.

Counter-ions that a name gives are not always drawn.

T1 sequence (P03952 391-638 limits assumed): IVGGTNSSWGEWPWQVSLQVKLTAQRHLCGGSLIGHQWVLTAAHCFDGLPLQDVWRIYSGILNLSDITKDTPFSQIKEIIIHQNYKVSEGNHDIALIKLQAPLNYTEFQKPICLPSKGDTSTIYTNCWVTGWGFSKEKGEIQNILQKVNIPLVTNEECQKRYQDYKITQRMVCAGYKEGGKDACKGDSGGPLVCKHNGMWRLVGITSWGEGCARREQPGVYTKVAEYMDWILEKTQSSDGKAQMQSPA
T1 sequence (P03952 20-390 partner limits assumed): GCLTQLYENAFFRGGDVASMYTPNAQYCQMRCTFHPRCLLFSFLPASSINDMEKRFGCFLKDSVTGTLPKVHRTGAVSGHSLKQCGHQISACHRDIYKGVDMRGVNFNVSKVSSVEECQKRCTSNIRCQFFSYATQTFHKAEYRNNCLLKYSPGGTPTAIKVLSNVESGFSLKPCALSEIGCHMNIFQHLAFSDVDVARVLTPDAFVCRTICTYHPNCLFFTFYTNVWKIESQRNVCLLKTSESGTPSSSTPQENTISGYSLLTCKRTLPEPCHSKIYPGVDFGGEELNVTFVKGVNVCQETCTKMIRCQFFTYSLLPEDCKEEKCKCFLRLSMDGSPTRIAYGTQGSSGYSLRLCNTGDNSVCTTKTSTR

The experiment has as its target T1, Human plasma kallikrein (Homo sapiens, UniProt P03952).
T1 construct: purchased Kordia (Leiden, Netherlands) batch HPKA 1303
In words: In vitro inhibition of plasma kallikrein (fluorogenic substrate DPro-Phe-Arg-(Rh110)-γGlu-OH). It is filed as biochemical. The following applies: human plasma kallikrein nominally 12 pM, substrate 0.5 μM, 1 hour pre-incubation at room temperature, read after 1 hour (t=60 min). The protocol: In Vitro Inhibition of Plasma Kallikrein
The fluorogenic substrate DPro-Phe-Arg-(Rh110)-γGlu-OH (where DPro is the amino acid d-proline, Rh110 is the fluorophore rhodamine 110 and γGlu is a […] linked to Rh110 via the gamma-carbonyl function; from Biosyntan, Berlin, Germany), being based on the chromogenic substrate described in Gallimore et al (Thromb Res 25, 293-298, 1982), was dissolved in DMSO at 5 mM and stored at −80° C. All other chemicals were of analytical grade.
Human plasma kallikrein was purchased from Kordia (Leiden, Netherlands, batch HPKA 1303) in lyophilized form.
The protein solution was reconstituted from the lyophilisate by addition of deinonized water. The resulting stock solution comprised the protein at a concentration of 0.17 mg/ml in 4 mM sodium acetate/HCl and 150 mM NaCl at pH 5.3. The stock solution was stored in aliquots at −80° C. Enzymatic reactions were conducted in ‘assay buffer’, comprising 50 mM Hepes/NaOH at pH 7.8, 150 mM NaCl, 1 mM EDTA and 0.05% (w/v) CHAPS.
Both, enzyme and substrate were diluted in assay buffer.
All protein and peptide containing solutions were handled in siliconized tubes (Life Systems Design, Merenschwand, Switzerland). The compound solutions as well as the enzyme and the substrate solutions were transferred to 384-well plates (black Cliniplate; cat. no. 95040020 Labsystems Oy, Finland) by means of a CyBi-Well 96-channel pipettor (CyBio AG, Jena, Germany). Plate measurements were conducted by the means of a Safire2 reader (TECAN, Maennedorf, Switzerland). The Safire2 is a monochomator-based instrument and wavelengths of 485 nm and 535 nm were taken for fluorescence excitation and emission acquisition, respectively. The bandwidths were set to 10 nm in both the excitation and the emission path. The fluorescence in each well was excited by three flashes per measurement.
For the determination of IC50 values, the assays were performed at room temperature in 384-well plates with a total assay volume of 25.25 μl per well.
The test compound was dissolved in 90% (v/v) DMSO/water. For the assays, […] of the 90% (v/v) DMSO/water solution or compound solution were added per well, followed by the addition of 12.5 μl protease solution (protease in assay buffer). The final assay concentration of the human plasma kallikrein was nominally 12 pM, the 11 compound concentrations in the dilution series were in the range form 1 nM to 100 μM. After 1 hour of pre-incubation at room temperature, the reactions were started by the addition of 12.5 μl substrate solution (in assay buffer, final assay concentration was 0.5 μM). After the addition of the substrate solution, the final DMSO concentration in the assay was 0.9% (v/v). The effect of the compound on the enzymatic activity was obtained from the linear part of the progress curves and determined after 1 hour (t=60 min). The IC50 value was calculated from the plot of percentage of inhibition vs. inhibitor concentration by a logistics fit according to the following equation:
where y is the %-inhibition at the inhibitor concentration, x. A1 is the lowest inhibition value, i.e. 0%, and A2 the maximum inhibition value, i.e. 100%. The exponent, p, is the Hill coefficient. The curve fitting was conducted with the non-linear regression routine of the analysis software Origin 7.5SR6 (Origin Lab Corporation).
`Cc1ccc2cc(Cn3cc(C(=O)NCc4c(C)ccnc4C)nn3)ccc2n1` [Example 1, N-((2,4-dimethylpyridin-3-yl)methyl)-1-((2-methylquinolin-6-yl)methyl)-1H-1,2,3-triazole-4-carboxamide] displayed an IC50 of 10200 nM.

`COc1ccnc(C)c1CNC(=O)c1cn(Cc2ccc3nc(C)ccc3c2)nn1` [Example 2, N-((4-methoxy-2-methylpyridin-3-yl)methyl)-1-((2-methylquinolin-6-yl)methyl)-1H-1,2,3-triazole-4-carboxamide] came in with an IC50 of 3600 nM. This IC50 lies about 2.8-fold lower than the previous one.

The compound `Cc1ccc2cc(Cn3cc(C(=O)NCc4c(C)cc(O)nc4C)nn3)ccc2n1` [Example 3, N-((6-hydroxy-2,4-dimethylpyridin-3-yl)methyl)-1-((2-methylquinolin-6-yl)methyl)-1H-1,2,3-triazole-4-carboxamide] gave an IC50 of 573 nM.

Consider `Cc1ccc2cc(Cn3cc(C(=O)NCc4c(C)cnc(O)c4C)nn3)ccc2n1` [Example 4, N-((2-hydroxy-3,5-dimethylpyridin-4-yl)methyl)-1-((2-methylquinolin-6-yl)methyl)-1H-1,2,3-triazole-4-carboxamide], for which half-maximal inhibition (IC50) was put at 2420 nM.

With `Cc1cnc2[nH]cc(CNC(=O)c3cn(Cc4ccc5nc(C)ccc5c4)nn3)c2c1` [Example 5, N-((5-methyl-1H-pyrrolo[2,3-b]pyridin-3-yl)methyl)-1-((2-methylquinolin-6-yl)methyl)-1H-1,2,3-triazole-4-carboxamide], the half-maximal inhibitory concentration (IC50) was determined as 2920 nM.

The compound `Cc1ccc2cc(Cn3cc(C(=O)NCc4c(C)ccnc4C(F)(F)F)nn3)ccc2n1` [Example 6, N-((4-methyl-2-(trifluoromethyl)pyridin-3-yl)methyl)-1-((2-methylquinolin-6-yl)methyl)-1H-1,2,3-triazole-4-carboxamide] gave an IC50 of 2840 nM.

Turning to `O=C(NCc1cccc(Cl)c1)c1cnn(Cc2ccc(Cn3cccn3)cc2)c1` [Example 7, 1-(4-((1H-pyrazol-1-yl)methyl)benzyl)-N-(3-chlorobenzyl)-1H-pyrazole-4-carboxamide], the midpoint of inhibition, the IC50, lay at 1310 nM.

`C[C@@H](NC(=O)c1cnn(Cc2ccc(Cn3cccn3)cc2)c1)c1cccc(Cl)c1` [Example 8, (R)-1-(4-((1H-pyrazol-1-yl)methyl)benzyl)-N-(1-(3-chlorophenyl)ethyl)-1H-pyrazole-4-carboxamide] yielded an IC50 of 1620 nM.

`N=C(N)c1ccc(CNC(=O)c2cnn(Cc3ccc4ccccc4c3)c2)cc1` [Example 9, N-(4-carbamimidoylbenzyl)-1-(naphthalen-2-ylmethyl)-1H-pyrazole-4-carboxamide hydrochloride] showed an IC50 of 0.292 nM.

`N=C(N)c1ccc(CNC(=O)c2cnn(Cc3ccc(Cn4cccn4)cc3)c2)cc1` [Example 10, 1-(4-((1H-pyrazol-1-yl)methyl)benzyl)-N-(4-carbamimidoylbenzyl)-1H-pyrazole-4-carboxamide hydrochloride] returned an IC50 of 0.878 nM.

Compound `COc1ccc(Cn2cc(C(=O)NCc3n[nH]c4ccc(Cl)cc34)cn2)cc1` [Example 11, N-((5-chloro-1H-indazol-3-yl)methyl)-1-(4-methoxybenzyl)-1H-pyrazole-4-carboxamide] came in with a half-inhibitory concentration (IC50) of 353 nM. This IC50 is about 400-fold higher than that of the compound before.

`Cc1ccc2cc(Cn3cc(C(=O)NCc4c[nH]c5ccc(Cl)cc45)cn3)ccc2n1` [Example 12, N-((5-chloro-1H-indol-3-yl)methyl)-1-((2-methylquinolin-6-yl)methyl)-1H-pyrazole-4-carboxamide]: half-maximal inhibition (IC50) required 24.3 nM. Compared with the last compound, the IC50 is about 15-fold lower.

`Cc1ccc2cc(Cn3cc(C(=O)NCc4ncc(N)nc4C)nn3)ccc2n1` [Example 13, N-((5-amino-3-methylpyrazin-2-yl)methyl)-1-((2-methylquinolin-6-yl)methyl)-1H-1,2,3-triazole-4-carboxamide]: the IC50 came to 784 nM.

Compound `COc1ccc(Cl)c(CNC(=O)c2cn(Cc3ccc4nc(C)ccc4c3)nn2)c1F` [Example 14, N-(6-chloro-2-fluoro-3-methoxybenzyl)-1-((2-methylquinolin-6-yl)methyl)-1H-1,2,3-triazole-4-carboxamide] had an IC50 of 42 nM.

In the case of `O=C(NCc1n[nH]c2ccc(Cl)cc12)c1cnn(Cc2ccc(Cn3ccccc3=O)cc2)c1` [Example 15, N-((5-chloro-1H-indazol-3-yl)methyl)-1-(4-((2-oxopyridin-1(2H)-yl)methyl)benzyl)-1H-pyrazole-4-carboxamide], the IC50 came to 0.107 nM.

For `O=C(NCc1c[nH]c2ccc(Cl)cc12)c1cnn(Cc2ccc(Cn3ccccc3=O)cc2)c1` [Example 16, N-((5-chloro-1H-indol-3-yl)methyl)-1-(4-((2-oxopyridin-1(2H)-yl)methyl)benzyl)-1H-pyrazole-4-carboxamide], the IC50 was determined as 0.328 nM.

In the case of `O=C(NCc1n[nH]c2ccc(Cl)cc12)c1cnn(Cc2ccc(Cn3cccn3)cc2)c1` [Example 17, 1-(4-((1H-pyrazol-1-yl)methyl)benzyl)-N-((5-chloro-1H-indazol-3-yl)methyl)-1H-pyrazole-4-carboxamide], half-maximal inhibition (IC50) required 0.554 nM.

For the compound `O=C(NCc1c[nH]c2ccc(Cl)cc12)c1cnn(Cc2ccc(Cn3cccn3)cc2)c1` [Example 18, 1-(4-((1H-pyrazol-1-yl)methyl)benzyl)-N-((5-chloro-1H-indol-3-yl)methyl)-1H-pyrazole-4-carboxamide], half-maximal inhibition (IC50) was put at 4.39 nM.

Compound `O=C(NCc1n[nH]c2ccc(Cl)cc12)c1cnn(Cc2ccc(CN3CCOC3=O)cc2)c1` [Example 19, N-((5-chloro-1H-indazol-3-yl)methyl)-1-(4-((2-oxooxazolidin-3-yl)methyl)benzyl)-1H-pyrazole-4-carboxamide] displayed an IC50 of 9.1 nM.

`Cc1ccc2cc(Cn3cc(C(=O)NCc4n[nH]c5ccc(Cl)cc45)cn3)ccc2n1` [Example 20, N-((5-chloro-1H-indazol-3-yl)methyl)-1-((2-methylquinolin-6-yl)methyl)-1H-pyrazole-4-carboxamide] returned an IC50 of 10.9 nM.

Compound `O=C(NCc1n[nH]c2ccc(Cl)cc12)c1cnn(Cc2ccc(S(=O)(=O)n3cccc3)cc2)c1` [Example 21, 1-(4-((1H-pyrrol-1-yl)sulfonyl)benzyl)-N-((5-chloro-1H-indazol-3-yl)methyl)-1H-pyrazole-4-carboxamide] came in with an IC50 of 46.4 nM.

On to `O=C(NCc1c[nH]c2ccc(Cl)cc12)c1cnn(Cc2ccc(CN3CCOC3=O)cc2)c1` [Example 22, N-((5-chloro-1H-indol-3-yl)methyl)-1-(4-((2-oxooxazolidin-3-yl)methyl)benzyl)-1H-pyrazole-4-carboxamide], for which the IC50 is 60 nM.

`O=C(NCc1c[nH]c2ccc(Cl)cc12)c1cnn(Cc2ccc(S(=O)(=O)n3cccc3)cc2)c1` [Example 23, 1-(4-((1H-pyrrol-1-yl)sulfonyl)benzyl)-N-((5-chloro-1H-indol-3-yl)methyl)-1H-pyrazole-4-carboxamide] returned an IC50 of 134 nM.

In turn, `COc1ccc(Cn2cc(C(=O)NCc3n[nH]c4ccc(Cl)cc34)cn2)cc1OC` [Example 24, N-((5-chloro-1H-indazol-3-yl)methyl)-1-(3,4-dimethoxybenzyl)-1H-pyrazole-4-carboxamide] registered an IC50 of 285 nM.

Consider `COc1cc(Cn2cc(C(=O)NCc3n[nH]c4ccc(Cl)cc34)cn2)cc(OC)c1` [Example 25, N-((5-chloro-1H-indazol-3-yl)methyl)-1-(3,5-dimethoxybenzyl)-1H-pyrazole-4-carboxamide], for which the IC50 turned out to be 312 nM.

In turn, `COc1cccc(Cn2cc(C(=O)NCc3n[nH]c4ccc(Cl)cc34)cn2)c1` [Example 26, N-((5-chloro-1H-indazol-3-yl)methyl)-1-(3-methoxybenzyl)-1H-pyrazole-4-carboxamide] gave an IC50 of 429 nM. This IC50 and that of the compound before are within 1.5-fold of each other.

`O=C(NCc1cccc(Cl)c1F)c1cnn(Cc2ccc(Cn3cccn3)cc2)c1` [Example 27, 1-(4-((1H-pyrazol-1-yl)methyl)benzyl)-N-(3-chloro-2-fluorobenzyl)-1H-pyrazole-4-carboxamide] gave an IC50 of 844 nM.
